Patent publication US12258355B2, “Probes for imaging huntingtin protein” (CHDI Foundation, Inc., priority 2014, dated 2025)

Tests used:
[1] = system: zQ175 knock-in mice (WT, heterozygous, homozygous); assay: In vivo PET imaging in zQ175 knock-in mouse model of Huntington's disease; conditions: for Average % SUV: i.v., 63-minute PET scan, Mean ± SD
Protocol: In Vivo Imaging with [^11C]-Compound 3 of Method 14 (5-[(5-[^11C-]-Methoxypyridin-2-yl)methoxy]-2-(pyridin-3-yl)-1,3-benzoxazole)) in a Knock-In Model of Huntington's Disease
^11C-labeled Compound 3 of Method 14 was evaluated for its ability to penetrate the central nervous system of mice following systemic administration, and its binding to the cerebellum, striatum, hippocampus, and cortex was quantitated. Three groups of animals were compared: wild-type, and mice that were heterozygous or homozygous for the zQ175 knock-in allele. (Menalled L. B. et al. Comprehensive behavioral and molecular characterization of a new knock-in mouse model of Huntington's disease: zQ175. PLoS One 2012, 7, e49838).
Forty-eight nine months old animals (16 WT, 16 heterozygous and 16 homozygous zQ175) were obtained from The Jackson Laboratory, USA. The animals were housed at the animal department of Karolinska University Hospital in a temperature (±21° C.) and humidity (±40%) controlled environment on a 12 h light/dark cycle (lights on 7:00 AM) with access to food and water ad libitum. Animals were allowed at least one week to habituate to the animal department before the start of the imaging sessions. All experiments were conducted during the light phase of the cycle.
Animals were anesthetized with inhalation of isoflurane (4-5% isoflurane in 100% oxygen). After induction of anesthesia, the isoflurane concentration was lowered to 1.5-2% (50/50 air/oxygen) and the animals were positioned in the scanner in a designated mouse bed. A cannula was inserted in the tail vein through which the radioligand was administered. A 63-minute dynamic PET scan was initiated immediately upon intravenous injection of the radioligand. Upon completion of the imaging sessions, each animal was returned to its cage.
Image and Statistical Analysis
The acquired list mode data, was reconstructed into 25 timeframes (63 min scan=4×10 s, 4×20 s, 4×60 s, 7×180 s, 6×360 s). The image reconstruction was made with a fully 3-dimensional maximum-likelihood expectation maximization algorithm (MLEM) with 20 iterations, without scatter and attenuation correction. The reconstructed dynamic PET images were co-registered to an inbuilt mouse MRI template available in PMOD, which also incorporates volumes of interest (VOI's) sets (PMOD Technologies Ltd., Zurich, Switzerland). With the help of these VOI sets, decay corrected time activity curves (TAC) were generated. The regional brain uptake values were expressed as percent standard uptake value (% SUV), which normalizes for injected radioactivity and body weight. In addition, the area under the curve (AUC) was calculated. The selected regions of interest (ROI) were: cortex, hippocampus, striatum and cerebellum.

[2] = system: recombinant tau and amyloid β1-42 (Aβ1-42) aggregates; conditions: affinity for tau aggregates versus Aβ1-42 aggregates; cited from earlier work
Q46 protein aggregates = target: T1, Q46 protein aggregates (Homo sapiens, UniProt P42858); assay: Q46 radioligand binding assay (RBA); conditions: 10 nM ligand [3H3]MK-3328
T1 construct: fused on or other part: GST at the N-terminus, cut off with thrombin before the test to start aggregation; The wells held aggregated Q46 without GST
T1 sequence (P42858 with tags, fused parts or gaps with the stated changes, form open): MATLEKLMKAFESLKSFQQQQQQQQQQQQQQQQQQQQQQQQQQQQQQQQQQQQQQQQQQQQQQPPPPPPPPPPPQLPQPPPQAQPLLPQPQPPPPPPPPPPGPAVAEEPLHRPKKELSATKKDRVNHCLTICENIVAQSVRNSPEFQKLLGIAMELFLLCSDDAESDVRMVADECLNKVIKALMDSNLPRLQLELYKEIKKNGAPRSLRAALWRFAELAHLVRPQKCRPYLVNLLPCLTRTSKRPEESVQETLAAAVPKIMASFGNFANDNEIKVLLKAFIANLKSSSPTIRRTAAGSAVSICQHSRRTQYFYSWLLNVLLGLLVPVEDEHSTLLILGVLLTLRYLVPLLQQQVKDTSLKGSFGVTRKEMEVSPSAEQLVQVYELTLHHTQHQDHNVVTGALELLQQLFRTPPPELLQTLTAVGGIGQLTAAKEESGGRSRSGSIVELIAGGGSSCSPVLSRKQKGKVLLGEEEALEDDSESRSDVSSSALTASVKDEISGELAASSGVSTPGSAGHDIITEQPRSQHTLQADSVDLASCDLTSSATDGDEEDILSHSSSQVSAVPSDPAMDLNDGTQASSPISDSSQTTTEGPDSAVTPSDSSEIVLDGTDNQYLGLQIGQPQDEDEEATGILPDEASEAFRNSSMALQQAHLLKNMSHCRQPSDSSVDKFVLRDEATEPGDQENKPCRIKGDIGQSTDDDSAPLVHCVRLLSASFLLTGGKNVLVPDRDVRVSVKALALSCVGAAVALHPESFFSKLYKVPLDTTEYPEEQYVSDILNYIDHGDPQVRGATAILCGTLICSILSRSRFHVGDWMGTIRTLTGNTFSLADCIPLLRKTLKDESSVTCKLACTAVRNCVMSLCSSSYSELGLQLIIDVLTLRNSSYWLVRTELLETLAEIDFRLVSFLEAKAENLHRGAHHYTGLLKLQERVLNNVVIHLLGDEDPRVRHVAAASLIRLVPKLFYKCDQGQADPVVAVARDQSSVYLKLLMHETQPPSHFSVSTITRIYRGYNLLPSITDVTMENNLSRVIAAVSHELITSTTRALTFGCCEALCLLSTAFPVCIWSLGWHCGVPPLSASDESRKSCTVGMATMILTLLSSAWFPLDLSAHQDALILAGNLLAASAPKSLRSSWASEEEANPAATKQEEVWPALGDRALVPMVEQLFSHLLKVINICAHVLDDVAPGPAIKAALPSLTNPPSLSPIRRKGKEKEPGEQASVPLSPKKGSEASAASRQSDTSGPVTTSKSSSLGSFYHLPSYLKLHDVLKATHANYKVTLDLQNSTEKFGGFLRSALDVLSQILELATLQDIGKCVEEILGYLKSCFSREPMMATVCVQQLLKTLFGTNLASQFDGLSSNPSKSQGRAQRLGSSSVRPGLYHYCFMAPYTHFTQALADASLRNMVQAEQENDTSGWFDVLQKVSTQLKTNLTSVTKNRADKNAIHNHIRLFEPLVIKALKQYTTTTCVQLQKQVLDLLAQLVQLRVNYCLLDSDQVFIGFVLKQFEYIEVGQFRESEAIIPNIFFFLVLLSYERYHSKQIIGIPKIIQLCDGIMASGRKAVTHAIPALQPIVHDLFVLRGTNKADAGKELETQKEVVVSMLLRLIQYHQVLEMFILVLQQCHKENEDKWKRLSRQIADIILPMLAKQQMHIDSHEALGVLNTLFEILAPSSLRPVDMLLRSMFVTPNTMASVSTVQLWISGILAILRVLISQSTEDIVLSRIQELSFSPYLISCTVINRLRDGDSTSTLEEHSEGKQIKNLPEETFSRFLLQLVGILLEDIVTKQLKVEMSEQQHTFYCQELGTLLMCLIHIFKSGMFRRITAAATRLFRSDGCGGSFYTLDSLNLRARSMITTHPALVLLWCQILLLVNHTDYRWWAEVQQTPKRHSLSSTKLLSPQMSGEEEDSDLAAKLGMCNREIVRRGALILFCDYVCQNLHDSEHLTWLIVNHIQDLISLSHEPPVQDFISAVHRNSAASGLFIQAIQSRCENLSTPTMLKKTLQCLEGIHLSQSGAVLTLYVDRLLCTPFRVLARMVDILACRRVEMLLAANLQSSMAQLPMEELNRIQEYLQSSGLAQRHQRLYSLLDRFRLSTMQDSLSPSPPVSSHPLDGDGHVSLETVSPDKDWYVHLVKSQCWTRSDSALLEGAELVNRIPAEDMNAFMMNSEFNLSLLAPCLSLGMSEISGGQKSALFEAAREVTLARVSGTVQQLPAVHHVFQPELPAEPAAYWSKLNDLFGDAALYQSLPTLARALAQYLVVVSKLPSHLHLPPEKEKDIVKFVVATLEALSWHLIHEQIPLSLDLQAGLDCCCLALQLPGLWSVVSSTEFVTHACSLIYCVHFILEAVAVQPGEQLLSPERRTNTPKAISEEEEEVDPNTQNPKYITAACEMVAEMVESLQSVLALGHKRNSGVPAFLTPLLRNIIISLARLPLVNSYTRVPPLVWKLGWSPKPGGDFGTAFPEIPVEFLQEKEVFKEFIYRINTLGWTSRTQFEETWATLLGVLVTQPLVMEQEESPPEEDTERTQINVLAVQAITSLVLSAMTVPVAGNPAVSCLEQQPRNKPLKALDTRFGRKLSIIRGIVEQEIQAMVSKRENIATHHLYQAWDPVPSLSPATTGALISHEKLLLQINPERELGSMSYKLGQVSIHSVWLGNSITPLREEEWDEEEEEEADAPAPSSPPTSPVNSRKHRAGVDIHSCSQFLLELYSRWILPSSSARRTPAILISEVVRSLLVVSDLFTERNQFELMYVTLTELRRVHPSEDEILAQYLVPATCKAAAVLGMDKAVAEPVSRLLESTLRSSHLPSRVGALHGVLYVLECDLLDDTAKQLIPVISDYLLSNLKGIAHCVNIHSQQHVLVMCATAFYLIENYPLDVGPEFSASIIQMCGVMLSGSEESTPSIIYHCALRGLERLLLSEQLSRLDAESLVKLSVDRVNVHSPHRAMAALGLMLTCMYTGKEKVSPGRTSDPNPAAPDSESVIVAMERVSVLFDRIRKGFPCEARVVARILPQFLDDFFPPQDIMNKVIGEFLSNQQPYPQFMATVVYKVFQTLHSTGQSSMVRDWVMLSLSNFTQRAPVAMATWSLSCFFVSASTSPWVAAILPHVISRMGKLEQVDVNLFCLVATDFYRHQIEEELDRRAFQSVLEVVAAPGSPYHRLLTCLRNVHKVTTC
Outline: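 Aggregates from thrombin-cleaved GST-Q46 (16 h, 37° C) at 5 μM monomer-equivalent were pre-incubated 20 min at room temperature with compound (1 μM to 30 pM) in 150 mM NaCl, 50 mM Tris pH 8.0, then 60 min at 37° C with 10 nM [^3H3]MK-3328. Bound radioactivity was filtered and counted; IC50 came from a four-parameter global fit normalized to vehicle and 3 μM unlabelled MK-3328.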

Row | IC50 (Q46 protein aggregates) [nM] | Compound | also measured
1 |  | [11CH3]Oc1ccc(COc2ccc3oc(-c4cccnc4)nc3c2)nc1 [^11C-labeled Compound 3 of Method 14, 5-[(5-[^11C-]-Methoxypyridin-2-yl)methoxy]-2-(pyridin-3-yl)-1,3-benzoxazole] | binding of the radioligand relative to wild type ([1]; all four brain regions, mice homozygous for the zQ175 allele): Increased binding; Average % SUV ([1]; cerebellum, WT mice (n = 7)): 74.2 ± 3.0 % SUV; Average % SUV ([1]; cerebellum, het zQ175 mice (n = 7)): 78.4 ± 5.9 % SUV; Average % SUV ([1]; cerebellum, hom zQ175 mice (n = 6)): 88.2 ± 5.0 % SUV; Average % SUV ([1]; cortex, WT mice (n = 7)): 69.1 ± 3.1 % SUV; Average % SUV ([1]; cortex, het zQ175 mice (n = 7)): 75.1 ± 4.3 % SUV; Average % SUV ([1]; cortex, hom zQ175 mice (n = 6)): 93.9 ± 8.0 % SUV; Average % SUV ([1]; hippocampus, WT mice (n = 7)): 72.0 ± 3.6 % SUV; Average % SUV ([1]; hippocampus, het zQ175 mice (n = 7)): 80.3 ± 5.5 % SUV; Average % SUV ([1]; hippocampus, hom zQ175 mice (n = 6)): 104.6 ± 7.9 % SUV; Average % SUV ([1]; striatum, WT mice (n = 7)): 68.8 ± 2.7 % SUV; Average % SUV ([1]; striatum, het zQ175 mice (n = 7)): 79.7 ± 5.8 % SUV; Average % SUV ([1]; striatum, hom zQ175 mice (n = 6)): 104.4 ± 9.1 % SUV
2 |  | CN(C)c1ccc(/C=C/c2nc3ccc(I)cc3[nH]2)cc1 [SBIM-3, 4-[(E)-2-(6-iodo-1H-benzimidazol-2-yl)ethenyl]-N,N-dimethylaniline] | ratio of Kd values [2]: 2.73
3 | 100 to 500 | C1=C(COc2ccc3oc(-c4cccnc4)nc3c2)N2CCN=C2S1 [5-{5H,6H-imidazo[2,1-b][1,3]thiazol-3-ylmethoxy}-2-(pyridin-3-yl)-1,3-benzoxazole] | 
4 | < 100 | N#Cc1cccc(C(=O)Nc2ccc3oc(-c4cccnc4)nc3c2)c1 [3-cyano-N-[2-(pyridin-3-yl)-1,3-benzoxazol-5-yl]benzamide] | 
5 | < 100 | COc1ccc(OCc2ccc3oc(-c4cccnc4)nc3c2)nc1 [5-{[(5-methoxypyridin-2-yl)oxy]methyl}-2-(pyridin-3-yl)-1,3-benzoxazole] | 
6 | 100 to 500 | Cn1cc(-c2nc3cc(OCc4ccc(O)cn4)ccc3o2)cn1 [6-({[2-(1-methyl-1H-pyrazol-4-yl)-1,3-benzoxazol-5-yl]oxy}methyl)pyridin-3-ol] | 
7 | < 100 | COc1ccc(COc2ccc3oc(-c4ccnnc4)nc3c2)nc1 [5-[(5-methoxypyridin-2-yl)methoxy]-2-(pyridazin-4-yl)-1,3-benzoxazole] | 
8 | < 100 | Cn1cc(-c2cc3cc(OCc4cncnc4)ccc3o2)c(C#N)n1 [1-methyl-4-[5-(pyrimidin-5-ylmethoxy)-1-benzofuran-2-yl]-1H-pyrazole-3-carbonitrile] | 
9 | < 100 | COc1ccc(COc2ccc3oc(-c4ccc(-c5ncccn5)cc4)nc3c2)nc1 [5-[(5-methoxypyridin-2-yl)methoxy]-2-[4-(pyrimidin-2-yl)phenyl]-1,3-benzoxazole] | 
10 | < 100 | COc1ccc(COc2ccc3oc(-c4ccc5occc5c4)nc3c2)nc1 [2-(1-benzofuran-5-yl)-5-[(5-methoxypyridin-2-yl)methoxy]-1,3-benzoxazole] | 
11 | < 100 | COc1ccc(COc2ccc3oc(-c4cncs4)nc3c2)nc1 [5-[(5-methoxypyridin-2-yl)methoxy]-2-(1,3-thiazol-5-yl)-1,3-benzoxazole] | 
12 | < 100 | COc1ccc(COc2ccc3oc(-c4cn(C)c(=O)cn4)nc3c2)nc1 [5-{5-[(5-methoxypyridin-2-yl)methoxy]-1,3-benzoxazol-2-yl}-1-methyl-1,2-dihydropyrazin-2-one] | 
13 | < 100 | COc1ccc(C(=O)Nc2ccc3oc(-c4cccc(C)c4)nc3c2)nc1 [5-methoxy-N-[2-(3-methylphenyl)-1,3-benzoxazol-5-yl]pyridine-2-carboxamide] | 
14 | < 100 | COc1ccc(COc2ccc3oc(-c4ccc(N)nc4)nc3c2)nc1 [5-{5-[(5-methoxypyridin-2-yl)methoxy]-1,3-benzoxazol-2-yl}pyridin-2-amine] | 
15 | < 100 | COc1ccc(COc2ccc3oc(N4CCc5nc[nH]c5C4)nc3c2)nc1 [2-{3H,4H,5H,6H,7H-imidazo[4,5-c]pyridin-5-yl}-5-[(5-methoxypyridin-2-yl)methoxy]-1,3-benzoxazole] | 
16 | < 100 | c1cncc(-c2nc3cc(Nc4nnc5ccccn45)ccc3o2)c1 [2-(pyridin-3-yl)-N-{[1,2,4]triazolo[4,3-a]pyridin-3-yl}-1,3-benzoxazol-5-amine] | 
